Experimental data published in ChEMBL document CHEMBL1201862, “PubChem BioAssay data set” (2004).
Several values for one entry are separate records, joined by “and”; a condition that tells them apart may be missing. Identical values can stand only once. Activity calls are given as the source filed them.

Columns and labels:
Trypsin = Trypsin (Sus scrofa, UniProt P00761); assay: porcine trypsin inhibitors, dose response, selectivity assay for Rce1 protease inhibitor project, biochemical, quenched peptide fluorescence, cherry-pick (AID 488789)
CAAX prenyl protease 1 = CAAX prenyl protease 1 (Saccharomyces cerevisiae S288c, UniProt P47154); assay: Ste24 protease inhibitors, dose response, biochemical, S. cerevisiae, plate reader, cherry-pick (AID 488815)
[1] = biological target: T1, Heat shock factor protein 1 (Mus musculus, UniProt P38532); assay: inhibition of MG132-induced HSE-luciferase signal, confirmation, cell-based, NIH3T3, luminescence, dose retest (AID 2382); type: functional;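 also: NIH3T3 fibroblasts with HSF1-driven luciferase reporter stressed by proteasome inhibitor MG132; luminescence from HSF1-driven luciferase expression after 8 hours of MG132 stress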
T1 sequence (P38532 whole entry): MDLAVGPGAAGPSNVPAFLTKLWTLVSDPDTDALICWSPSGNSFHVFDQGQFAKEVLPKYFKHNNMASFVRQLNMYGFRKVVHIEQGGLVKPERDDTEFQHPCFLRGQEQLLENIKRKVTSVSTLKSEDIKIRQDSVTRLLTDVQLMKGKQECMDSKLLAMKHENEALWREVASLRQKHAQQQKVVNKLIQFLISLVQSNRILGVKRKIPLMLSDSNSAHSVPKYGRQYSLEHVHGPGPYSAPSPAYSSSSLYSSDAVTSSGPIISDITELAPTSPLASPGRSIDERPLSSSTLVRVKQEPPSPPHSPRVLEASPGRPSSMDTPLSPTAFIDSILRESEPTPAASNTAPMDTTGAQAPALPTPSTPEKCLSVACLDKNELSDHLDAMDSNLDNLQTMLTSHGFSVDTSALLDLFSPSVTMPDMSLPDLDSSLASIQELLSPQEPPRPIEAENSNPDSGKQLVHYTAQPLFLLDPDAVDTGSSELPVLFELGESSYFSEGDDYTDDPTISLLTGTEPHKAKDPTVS

Cytochrome P450 2D6 = Cytochrome P450 2D6 (Homo sapiens, UniProt P10635);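 also: CYP2D6 member of a cytochrome P450 panel assay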
Cytochrome P450 1A2 = biological target: T2, Cytochrome P450 1A2 (Homo sapiens, UniProt P05177);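 also: PubChem cytochrome P450 panel assay, CYP1A2 panel member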
T2 sequence (P05177 whole entry): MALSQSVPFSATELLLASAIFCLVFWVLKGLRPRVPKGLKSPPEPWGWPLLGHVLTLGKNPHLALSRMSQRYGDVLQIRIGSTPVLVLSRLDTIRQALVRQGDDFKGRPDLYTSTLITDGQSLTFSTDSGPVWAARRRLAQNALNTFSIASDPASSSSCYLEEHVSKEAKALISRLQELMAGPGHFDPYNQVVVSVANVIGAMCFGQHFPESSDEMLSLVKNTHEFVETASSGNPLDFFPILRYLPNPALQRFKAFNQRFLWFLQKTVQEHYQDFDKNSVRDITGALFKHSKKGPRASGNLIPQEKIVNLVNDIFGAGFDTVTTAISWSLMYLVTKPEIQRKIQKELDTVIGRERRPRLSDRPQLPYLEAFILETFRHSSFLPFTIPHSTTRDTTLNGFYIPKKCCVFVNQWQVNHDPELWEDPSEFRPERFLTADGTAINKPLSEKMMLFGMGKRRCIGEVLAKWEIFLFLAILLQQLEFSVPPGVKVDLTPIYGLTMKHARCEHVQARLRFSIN

[2] = biological target: T3, Dual specificity protein phosphatase 3 (Homo sapiens, UniProt P51452); assay: VHR1 phosphatase inhibitors, primary screen, biochemical, absorbance, uHTS (AID 1654)
[3] = biological target: T4, Voltage-gated N-type calcium channel alpha-1B subunit/Amyloid beta A4 precursor protein-binding family A member 1 (Homo sapiens, UniProt Q00975+Q02410); type: protein assay
NS3 = NS3 (Hepatitis C virus, UniProt A3EZJ3); assay: PubChem AID 2173; set-up: species or system Hepacivirus hominis
[4] = biological target: T4, Voltage-gated N-type calcium channel alpha-1B subunit/Amyloid beta A4 precursor protein-binding family A member 1; type: protein assay; remark: listed apart in the source
[5] = biological target: T5, Induced myeloid leukemia cell differentiation protein Mcl-1 (Homo sapiens, UniProt Q07820); assay: MCL1-BIM BH3 interaction inhibitors, dose response, biochemical, fluorescence polarization, BIM-BH3 peptide, 1536-well (AID 2217)
[6] = biological target: T3, Dual specificity protein phosphatase 3; assay: VHR1 phosphatase inhibitors, biochemical (AID 1878)
Bcl-2-like protein 1 = Bcl-2-like protein 1 (Homo sapiens, UniProt Q07817); assay: BCL-XL inhibitors, dose response, selectivity assay for MCL1 inhibitor project, biochemical, fluorescence polarization, 1536-well (AID 2218)
[7] = biological target: Dual specificity protein phosphatase 6 (Rattus norvegicus, UniProt Q64346); assay: MKP-3 phosphatase inhibitors, primary screen, biochemical, rat enzyme, in vitro (AID 425)
[8] = inhibitors of Bluetongue virus cytopathic effect, confirmation, arbovirus, BSR cells (AID 1250); type: functional;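 also: protection from viral cytopathic effect measured as cell viability by ATP luminescence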
[9] = biological target: T5, Induced myeloid leukemia cell differentiation protein Mcl-1; type: functional
[10] = biological target: Eukaryotic translation initiation factor 4E (Mus musculus, UniProt P63073); assay: eIF4E–eIF4G protein interaction inhibitors, dose response, biochemical, TR-FRET (AID 855); type: functional;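 also: potency for disrupting eIF4E binding to eIF4GI seen as loss of FRET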
Cysteine protease ATG4B = biological target: T6, Cysteine protease ATG4B (Homo sapiens, UniProt Q9Y4P1); type: functional;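 also: Fluorescence-based dose-response confirmation assay measuring inhibition of ATG4B activity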
T6 sequence (Q9Y4P1 whole entry): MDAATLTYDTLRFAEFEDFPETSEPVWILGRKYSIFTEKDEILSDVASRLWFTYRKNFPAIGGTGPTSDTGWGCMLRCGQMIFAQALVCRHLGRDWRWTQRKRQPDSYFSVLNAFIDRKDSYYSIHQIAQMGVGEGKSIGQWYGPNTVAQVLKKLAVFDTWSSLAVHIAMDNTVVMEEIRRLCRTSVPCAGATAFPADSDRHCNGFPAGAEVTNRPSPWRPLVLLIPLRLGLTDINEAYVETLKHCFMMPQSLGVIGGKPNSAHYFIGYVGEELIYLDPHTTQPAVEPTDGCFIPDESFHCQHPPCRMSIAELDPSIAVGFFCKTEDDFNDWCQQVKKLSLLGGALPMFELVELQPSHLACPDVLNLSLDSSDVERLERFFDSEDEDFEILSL

Phospholipase A2 = Phospholipase A2 (Homo sapiens, UniProt P04054); type: functional;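 also: confirmatory dose-response counterscreen on phospholipase A2, testing hits that came from an ultra-high-throughput screen for ATG4B inhibitors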
Chain of Phospholipase A2 (P04054 whole entry): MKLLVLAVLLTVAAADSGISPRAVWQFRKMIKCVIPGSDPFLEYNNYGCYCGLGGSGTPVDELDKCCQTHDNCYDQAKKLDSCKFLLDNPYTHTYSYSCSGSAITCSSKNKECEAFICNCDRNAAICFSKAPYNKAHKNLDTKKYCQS

Chain of Cytochrome P450 2D6 (P10635 whole entry): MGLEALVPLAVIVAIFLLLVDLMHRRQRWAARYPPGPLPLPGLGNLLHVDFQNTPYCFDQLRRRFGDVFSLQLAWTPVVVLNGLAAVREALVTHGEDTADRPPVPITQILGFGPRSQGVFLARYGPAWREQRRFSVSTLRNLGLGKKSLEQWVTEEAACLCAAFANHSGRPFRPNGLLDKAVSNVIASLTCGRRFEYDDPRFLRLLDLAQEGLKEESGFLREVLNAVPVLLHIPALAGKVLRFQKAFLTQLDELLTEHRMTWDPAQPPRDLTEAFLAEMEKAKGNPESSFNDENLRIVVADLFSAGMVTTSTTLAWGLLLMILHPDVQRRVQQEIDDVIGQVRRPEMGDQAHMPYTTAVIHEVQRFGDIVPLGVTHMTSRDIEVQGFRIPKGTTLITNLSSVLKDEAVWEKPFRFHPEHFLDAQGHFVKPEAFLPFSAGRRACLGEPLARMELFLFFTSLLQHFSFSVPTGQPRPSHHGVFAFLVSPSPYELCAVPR
T5 sequence (Q07820 whole entry): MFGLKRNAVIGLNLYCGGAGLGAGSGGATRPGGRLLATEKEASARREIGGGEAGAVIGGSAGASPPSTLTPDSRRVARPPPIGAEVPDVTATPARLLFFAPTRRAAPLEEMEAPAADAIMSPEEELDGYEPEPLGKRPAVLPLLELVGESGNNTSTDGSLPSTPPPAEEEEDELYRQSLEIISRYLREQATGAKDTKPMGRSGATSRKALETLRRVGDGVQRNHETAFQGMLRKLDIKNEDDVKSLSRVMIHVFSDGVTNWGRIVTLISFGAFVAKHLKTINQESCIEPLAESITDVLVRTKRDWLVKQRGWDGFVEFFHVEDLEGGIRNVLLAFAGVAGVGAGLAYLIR
T4 sequence (Q00975 whole entry): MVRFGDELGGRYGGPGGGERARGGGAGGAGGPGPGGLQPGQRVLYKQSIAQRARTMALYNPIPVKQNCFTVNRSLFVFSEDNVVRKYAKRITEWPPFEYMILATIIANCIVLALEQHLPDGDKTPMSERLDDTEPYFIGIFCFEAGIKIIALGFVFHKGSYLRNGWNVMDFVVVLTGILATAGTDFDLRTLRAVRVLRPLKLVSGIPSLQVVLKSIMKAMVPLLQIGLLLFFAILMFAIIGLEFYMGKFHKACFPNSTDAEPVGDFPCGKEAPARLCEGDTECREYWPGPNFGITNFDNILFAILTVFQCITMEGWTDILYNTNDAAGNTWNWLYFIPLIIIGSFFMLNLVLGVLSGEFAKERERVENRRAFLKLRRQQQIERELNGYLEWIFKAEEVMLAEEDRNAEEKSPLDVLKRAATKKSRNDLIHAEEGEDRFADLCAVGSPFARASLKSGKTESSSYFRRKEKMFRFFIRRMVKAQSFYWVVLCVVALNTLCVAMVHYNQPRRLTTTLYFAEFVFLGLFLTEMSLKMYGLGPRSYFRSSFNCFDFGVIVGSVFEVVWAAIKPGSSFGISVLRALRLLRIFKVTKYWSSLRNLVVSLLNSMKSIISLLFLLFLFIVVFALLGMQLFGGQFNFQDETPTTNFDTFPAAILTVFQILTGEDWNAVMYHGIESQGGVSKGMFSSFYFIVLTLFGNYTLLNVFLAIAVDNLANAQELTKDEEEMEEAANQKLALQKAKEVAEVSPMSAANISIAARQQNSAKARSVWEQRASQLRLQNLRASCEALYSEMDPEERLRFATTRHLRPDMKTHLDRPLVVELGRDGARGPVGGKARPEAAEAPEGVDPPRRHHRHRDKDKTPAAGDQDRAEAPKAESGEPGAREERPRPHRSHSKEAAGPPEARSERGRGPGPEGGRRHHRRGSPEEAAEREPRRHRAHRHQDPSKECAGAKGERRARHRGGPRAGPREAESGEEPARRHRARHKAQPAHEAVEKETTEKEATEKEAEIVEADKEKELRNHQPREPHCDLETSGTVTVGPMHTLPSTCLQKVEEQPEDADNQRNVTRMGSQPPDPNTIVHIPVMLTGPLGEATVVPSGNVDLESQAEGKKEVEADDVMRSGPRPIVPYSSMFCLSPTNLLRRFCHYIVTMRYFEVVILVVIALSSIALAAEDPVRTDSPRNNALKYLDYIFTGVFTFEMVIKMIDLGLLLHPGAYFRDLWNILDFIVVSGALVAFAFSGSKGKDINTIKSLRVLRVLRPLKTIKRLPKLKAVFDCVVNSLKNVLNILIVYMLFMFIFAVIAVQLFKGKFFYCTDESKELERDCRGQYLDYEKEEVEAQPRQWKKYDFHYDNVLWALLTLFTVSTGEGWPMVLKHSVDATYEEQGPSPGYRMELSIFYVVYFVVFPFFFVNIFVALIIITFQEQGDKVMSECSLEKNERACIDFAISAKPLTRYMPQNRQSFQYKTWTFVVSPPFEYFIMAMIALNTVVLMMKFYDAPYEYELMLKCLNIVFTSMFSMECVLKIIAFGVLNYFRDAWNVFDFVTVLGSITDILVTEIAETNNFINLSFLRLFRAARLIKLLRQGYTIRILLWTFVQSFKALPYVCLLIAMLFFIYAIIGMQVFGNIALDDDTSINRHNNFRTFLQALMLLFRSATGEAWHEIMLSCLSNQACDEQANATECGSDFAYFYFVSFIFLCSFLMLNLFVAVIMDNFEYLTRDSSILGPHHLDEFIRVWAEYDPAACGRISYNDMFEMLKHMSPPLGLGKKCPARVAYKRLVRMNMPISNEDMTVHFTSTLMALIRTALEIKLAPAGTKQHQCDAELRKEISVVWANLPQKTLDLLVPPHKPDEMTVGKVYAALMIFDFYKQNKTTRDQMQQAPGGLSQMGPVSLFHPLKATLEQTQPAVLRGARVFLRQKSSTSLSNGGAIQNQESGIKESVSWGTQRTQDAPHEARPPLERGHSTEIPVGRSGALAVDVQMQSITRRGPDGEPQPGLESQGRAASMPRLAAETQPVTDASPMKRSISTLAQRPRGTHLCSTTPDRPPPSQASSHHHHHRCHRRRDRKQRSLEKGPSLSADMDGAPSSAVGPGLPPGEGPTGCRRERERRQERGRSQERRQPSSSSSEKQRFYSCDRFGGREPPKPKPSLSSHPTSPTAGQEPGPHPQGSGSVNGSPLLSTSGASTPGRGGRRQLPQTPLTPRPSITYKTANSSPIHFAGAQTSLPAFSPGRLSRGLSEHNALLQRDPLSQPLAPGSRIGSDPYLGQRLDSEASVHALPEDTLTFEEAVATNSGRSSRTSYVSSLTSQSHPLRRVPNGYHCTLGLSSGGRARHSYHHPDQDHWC
T4 sequence (Q02410 whole entry): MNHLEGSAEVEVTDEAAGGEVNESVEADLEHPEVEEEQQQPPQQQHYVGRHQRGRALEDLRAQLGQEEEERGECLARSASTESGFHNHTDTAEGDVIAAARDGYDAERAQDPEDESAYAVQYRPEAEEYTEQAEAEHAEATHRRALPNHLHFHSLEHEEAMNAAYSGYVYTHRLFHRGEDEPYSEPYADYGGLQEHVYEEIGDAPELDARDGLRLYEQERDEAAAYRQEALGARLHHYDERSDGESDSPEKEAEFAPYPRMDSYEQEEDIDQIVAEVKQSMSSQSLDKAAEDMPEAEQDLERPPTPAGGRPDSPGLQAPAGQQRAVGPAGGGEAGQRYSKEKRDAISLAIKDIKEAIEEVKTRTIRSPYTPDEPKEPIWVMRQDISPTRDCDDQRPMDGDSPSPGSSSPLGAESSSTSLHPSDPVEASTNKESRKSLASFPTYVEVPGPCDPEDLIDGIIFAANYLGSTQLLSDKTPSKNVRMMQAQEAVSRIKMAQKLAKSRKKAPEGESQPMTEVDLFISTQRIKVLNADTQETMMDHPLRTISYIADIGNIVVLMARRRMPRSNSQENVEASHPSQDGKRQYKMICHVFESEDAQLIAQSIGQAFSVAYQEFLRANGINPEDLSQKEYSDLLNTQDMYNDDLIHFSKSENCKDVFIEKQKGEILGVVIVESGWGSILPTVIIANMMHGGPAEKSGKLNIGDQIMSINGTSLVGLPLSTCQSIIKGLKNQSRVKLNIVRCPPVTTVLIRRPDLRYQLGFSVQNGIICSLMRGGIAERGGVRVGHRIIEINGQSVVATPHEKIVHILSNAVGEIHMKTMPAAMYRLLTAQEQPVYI
T3 sequence (P51452 whole entry): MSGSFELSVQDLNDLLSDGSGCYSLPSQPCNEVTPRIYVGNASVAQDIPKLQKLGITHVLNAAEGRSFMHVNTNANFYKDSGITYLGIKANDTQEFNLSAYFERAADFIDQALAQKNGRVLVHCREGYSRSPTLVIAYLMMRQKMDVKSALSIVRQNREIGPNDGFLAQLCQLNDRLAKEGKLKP
Chain of Eukaryotic translation initiation factor 4E (P63073 whole entry): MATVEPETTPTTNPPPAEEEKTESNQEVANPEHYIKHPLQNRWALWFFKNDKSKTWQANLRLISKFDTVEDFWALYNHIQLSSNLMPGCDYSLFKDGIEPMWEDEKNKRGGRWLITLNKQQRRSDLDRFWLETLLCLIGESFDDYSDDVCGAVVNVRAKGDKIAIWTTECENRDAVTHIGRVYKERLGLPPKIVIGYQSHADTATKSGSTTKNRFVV
Chain of CAAX prenyl protease 1 (P47154 whole entry): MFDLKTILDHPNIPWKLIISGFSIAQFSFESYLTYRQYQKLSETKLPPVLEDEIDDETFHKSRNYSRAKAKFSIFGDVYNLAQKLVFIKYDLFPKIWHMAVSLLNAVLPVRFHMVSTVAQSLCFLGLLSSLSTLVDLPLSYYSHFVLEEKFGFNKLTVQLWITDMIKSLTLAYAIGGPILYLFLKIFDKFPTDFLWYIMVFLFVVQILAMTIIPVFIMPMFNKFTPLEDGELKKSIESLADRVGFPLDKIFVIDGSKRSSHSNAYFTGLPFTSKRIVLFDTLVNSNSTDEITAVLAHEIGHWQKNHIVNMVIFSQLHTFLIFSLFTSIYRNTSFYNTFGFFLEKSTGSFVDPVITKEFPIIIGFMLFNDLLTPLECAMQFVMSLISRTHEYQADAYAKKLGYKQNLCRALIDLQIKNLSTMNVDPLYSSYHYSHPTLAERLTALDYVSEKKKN

CCCCNC(=O)C(CC)Sc1nc2sc(C(=O)OC)c(C)c2c(=O)n1N (stereo not drawn)
AC50 (Trypsin): 0.985 µM (active)
AC50 (CAAX prenyl protease 1): 8.14 µM (active)

Cc1ccc(N(CC2=NCCN2)c2cccc(O)c2)cc1 [PHENTOLAMINE]
EC50 [1]: > 195 µM (not active)
AC50 (Cytochrome P450 2D6): 794 nM (active) and 1.12 µM (active)
AC50 (Cytochrome P450 1A2): inactive

COc1ccc(-n2cccc2/C=C2\C(=N)N3N=C(c4ccco4)SC3=NC2=O)cc1
IC50 [2]: 6.65 µM (active)
IC50 [3]: 14.1 µM (active)
IC50 (NS3): 7.79 µM (active)
IC50 [4]: > 50 µM (inactive)
IC50 [5]: 4.93 µM (active)
IC50 [6]: 2.27 µM (active)
IC50 (Bcl-2-like protein 1): > 109 µM (not active)
IC50 [7]: 9.04 µM (active)
IC50 [8]: 33.2 µM (active)
IC50 [9]: 19.3 µM (active)
IC50 [10]: 50 µM (inactive)
IC50 (Cysteine protease ATG4B): 2.73 µM (active)
IC50 (Phospholipase A2): 1.09 µM (active)
